Assay results reported in patent US4529549A, “Spergualin-related compounds and process for the preparation thereof” (Zaidan Hojin Biseibutsu Kagaku Kenkyu Kai, priority 1982, dated 1985).
Values after ≈ are worked out from the molar mass of the structure shown. Counter-ions that a name gives are not always drawn. Like-named read-outs stand apart in the source and are kept apart here.

Tests used:
[1] = Stability of the compounds in aqueous solutions (HPLC residual content); assay type: physicochemical; details: water
Protocol: Each of the compounds of this invention was dissolved in water to a concentration of 0.5 (w/w)%. The aqueous solution was maintained at 40°±1° C., and sampled at certain time intervals. Each sample was subjected to high-performance liquid chromatographic analysis to measure the area of the peak of the compound at each sampling time, and to calculate the ratio of the area of the peak after the indicated period of time to that at the first sampling time. The results of the calculation were used to determine the contents (%) of the compound of this invention in the aqueous solution after the indicated periods of time, with the initial content of said compound set at 100%.

[2] = system: mouse leukemia L1210 cells; test: In vitro proliferation-inhibiting action on mouse leukemia L1210 cells; assay type: cell-based; details: 48 hours at 37° C.
Protocol: Leukemia L1210 cells (1×10^5 /0.2 ml) were transplanted to female DBA/2 mice intraperitoneally. four days later, the ascitic fluid was collected and centrifuged to obtain proliferated L1210 cells. The L1210 cells collected were added to RPMI1640 medium containing bovine fetal serum and 2-mercaptoethanol, to obtain a suspension of L1210 cells having a final concentration of 5×10^4 cells/0.9 ml. Each of the compounds of this invention was dissolved in said culture medium to prepare solutions with final concentrations ranging from 0.062 to 100 μg/ml. 0.9 ml of the L1210 cell suspension and 0.1 ml of each test solution were mixed in petri dishes, and incubated for 48 hours at 37° C. in an incubator under an atmosphere of carbon dioxide gas. The number of L1210 cells was counted before and after the incubation, and that concentration of the compound which inhibited the proliferation of L1210 cells by 50% of the control's proliferation was determined (IC50).

mouse leukemia L1210 = test: Life-prolonging effect in mouse leukemia L1210; assay type: in vivo, mouse (male CDF1-SLC); details: once daily for 9 days, >125 effective
Protocol: (§1) Leukemia L1210 cells (1×10^5 /0.2 ml) were transplanted intraperitoneally into male CDF1 -SLC mice (6 mice/group). Each of the compounds of this invention was diluted with physiological saline to various concentrations. Each dilution was administered at a dose of 0.1 ml/10 g of body weight once daily for 9 days, starting on the day after the day of the transplantation. The mice of the control group were administered physiological saline.
The average number of days that the group receiving the compound of this invention survived was calculated. The FIGURE obtained was divided by the average number of survival days for the control group, and was multiplied by 100 (T/C (%)). T/C value more than 125 was considered to be effective.

[3] = Toxicity: change in body weight in mice transplanted with L1210; assay type: in vivo, mouse (male CDF1-SLC); details: once daily for 9 days
Protocol: as §1
Change in body weight, the measure of the toxicity of the compounds of this invention, was expressed by a difference between the change in body weight for the group receiving the compound of this invention and that for the control group receiving physiological saline and undergoing no transplantation.

Gram-positive bacteria = details: cited from earlier work
Gram-negative bacteria = details: cited from earlier work
mouse leukemia L-1210 = details: cited from earlier work
mouse leukemia FL-4 = details: cited from earlier work
Ehrlich carcinoma = details: cited from earlier work
sarcoma 180 (S-180) = details: cited from earlier work
Bacillus subtilis PCI219 = test: Growth-inhibiting action on Bacillus subtilis (agar plate MIC); assay type: cell-based; details: Bacillus subtilis
Protocol: Each of the compounds of this invention was dissolved in nutrient agar media to final concentrations of 100, 50, 25, 12.5, 6.25, 3.13 and 1.56 μg/ml, to prepare agar plates for testing. Bacillus subtilis PCI219 was adjusted to a content of 1×10^6 viable cells/ml, in a culture broth, and a loopful of the broth was applied onto the agar plates. The plates were incubated for 20 hours at 37° C. under stationary conditions, and observed for the formation of colonies of Bacillus subtilis. The lowest of the concentrations at which no colonies were formed was taken to be minimum inhibitory concentration (MIC).

[4] = PCI219, nutrient agar, 20 hours at 37° C., read-out: MIC

Row | Structure (SMILES) | IC50 [2] [µg/mL] | T/C (%) (mouse leukemia L1210; 0.78 mg/kg/day) | T/C (%) (mouse leukemia L1210; 1.56 mg/kg/day) | T/C (%) (mouse leukemia L1210; 3.13 mg/kg/day) | T/C (%) (mouse leukemia L1210; 6.25 mg/kg/day) | T/C (%) (mouse leukemia L1210; 12.50 mg/kg/day) | T/C (%) (mouse leukemia L1210; 25.00 mg/kg/day) | T/C (%) (mouse leukemia L1210; 50.00 mg/kg/day) | Change in body weight (g) ([3]; 0.78 mg/kg/day) | Change in body weight (g) ([3]; 1.56 mg/kg/day) | Change in body weight (g) ([3]; 3.13 mg/kg/day) | Change in body weight (g) ([3]; 6.25 mg/kg/day) | Change in body weight (g) ([3]; 12.50 mg/kg/day) | remaining at 12 h [1] [%] | remaining at 24 h [1] [%] | remaining at 48 h [1] [%] | remaining at 72 h [1] [%] | remaining at 120 h [1] [%] | remaining at 168 h [1] [%] | T/C (%) (mouse leukemia L1210; 0.39 mg/kg/day) | also measured
1 | N=C(N)NCCCCC(O)CC(=O)NC(O)C(=O)NCCCCNCCCN (centres unmarked) [Spergualin] | 4.6 (≈ 11.4 µM) | 129 | > 224 | > 665 | > 769 | > 700 | > 524 | > 342 | +0.8 g | +2.5 g | +1.2 g | +0.9 g | +0.8 g | – | – | – | – | – | – | – | Residual content (%) of the compound in an aqueous solution ([1]; 12 h): 94.6%; Residual content (%) of the compound in an aqueous solution ([1]; 24 h): 90.8%; Residual content (%) of the compound in an aqueous solution ([1]; 48 h): 84.6%; Residual content (%) of the compound in an aqueous solution ([1]; 72 h): 78.5%; Residual content (%) of the compound in an aqueous solution ([1]; 120 h): 69.9%; Residual content (%) of the compound in an aqueous solution ([1]; 168 h): 65.1%; Change in body weight (g) ([3]; 25.00 mg/kg/day): +1.1 g; Change in body weight (g) ([3]; 50.00 mg/kg/day): +0.2 g; growth inhibitory activity (Gram-positive bacteria): growth inhibitory activity; growth inhibitory activity (Gram-negative bacteria): growth inhibitory activity; curing effect and life extension effect (mouse leukemia L-1210): distinctive curing effect and life extension effect; curing effect and life extension effect (mouse leukemia FL-4): distinctive curing effect and life extension effect; curing effect and life extension effect (Ehrlich carcinoma): distinctive curing effect and life extension effect; curing effect and life extension effect (sarcoma 180 (S-180)): distinctive curing effect and life extension effect
2 | Cl.Cl.Cl.N=C(N)NCCCCCCC(=O)N[C@@H](CO)C(=O)NCCCCNCCCN [Compound 2, 10-[N-(7-guanidinoheptanoyl)-L-seryl]-1,5,10-triazadecane trihydrochloride] | 4.5 | > 346 | > 769 | > 769 | > 705 | > 612 | 100 | 12.8 | +1.5 g | +1.3 g | +0.6 g | +1.0 g | – | 100 | 100 | 99.8 | 100 | 99.7 | 99.8 | 124 | MIC (Bacillus subtilis PCI219; PCI219, 20 h): 12.5 µg/mL; Change in body weight (g) ([3]; 0.39 mg/kg/day): +2.7 g; Change in body weight ([3]; 12.50 mg/kg/day): -0.2 g
3 | Cl.Cl.Cl.N=C(N)NCCCCCCC(=O)NCC(=O)NCCCCNCCCN [Compound 1, 10-[N-(7-guanidinoheptanoyl)-glycyl]-1,5,10-triazadecane trihydrochloride] | 1.7 | > 250 | > 388 | > 667 | > 769 | > 528 | > 279 | 12.9 | +2.7 g | +1.0 g | +0.8 g | +0.9 g | +0.2 g | 99.7 | 100 | 99.7 | 99.7 | 99.8 | 99.9 | 126 | MIC (Bacillus subtilis PCI219; [4]): 6.25 µg/mL; Change in body weight (g) ([3]; 0.39 mg/kg/day): +1.8 g; Change in body weight ([3]; 25.00 mg/kg/day): -1.6 g
4 | N=C(N)NCCCCCCC(=O)N[C@@H](CC(=O)O)C(=O)NCCCCNCCCN [Compound 10, 10-[N--(7-guanidinoheptanoyl)-L-asparthyl]-1,5,10-triazadecane trihydrochloride] | 130 | – | – | – | – | – | – | – | – | – | – | – | – | 99.9 | 99.4 | 99.8 | 100 | 99.8 | 99.9 | – | MIC (Bacillus subtilis PCI219; [4]): > 100 µg/mL
